One assay deals with Glutamate NMDA receptor. The assay is described as follows: Displacement of [3H]CGP-39653 from rat NMDA receptor in rat brain membranes. On the technique in general: Loss of bound radioactivity is the signal in a displacement assay; it reports binding, not function.
Assay [1] addresses Metabotropic glutamate receptor 4 (Homo sapiens, UniProt Q14833). The assay is described as follows: Displacement of [3H]LAP4 from mGluR4 receptor expressed in BHK cells. In kind it is cell-based.
Assay [2] concerns the target Metabotropic glutamate receptor 1 (Homo sapiens, UniProt Q13255). The assay is described as follows: Displacement of [3H]quisqualate from mGluR1 receptor expressed in BHK cells. In kind it is cell-based.
A short description of assay [3]: Displacement of [3H]kainic acid from rat KA receptor in rat brain membranes.
Assay [4] in a line: Displacement of [3H]AMPA from rat AMPA receptor in rat brain membranes.
Assay [5] deals with Metabotropic glutamate receptor 5 (Homo sapiens, UniProt P41594). The assay is described as follows: Binding affinity to mGluR5 receptor expressed in BHK cells. In kind it is cell-based.
Metabotropic glutamate receptor 5, sequence (P41594 whole entry): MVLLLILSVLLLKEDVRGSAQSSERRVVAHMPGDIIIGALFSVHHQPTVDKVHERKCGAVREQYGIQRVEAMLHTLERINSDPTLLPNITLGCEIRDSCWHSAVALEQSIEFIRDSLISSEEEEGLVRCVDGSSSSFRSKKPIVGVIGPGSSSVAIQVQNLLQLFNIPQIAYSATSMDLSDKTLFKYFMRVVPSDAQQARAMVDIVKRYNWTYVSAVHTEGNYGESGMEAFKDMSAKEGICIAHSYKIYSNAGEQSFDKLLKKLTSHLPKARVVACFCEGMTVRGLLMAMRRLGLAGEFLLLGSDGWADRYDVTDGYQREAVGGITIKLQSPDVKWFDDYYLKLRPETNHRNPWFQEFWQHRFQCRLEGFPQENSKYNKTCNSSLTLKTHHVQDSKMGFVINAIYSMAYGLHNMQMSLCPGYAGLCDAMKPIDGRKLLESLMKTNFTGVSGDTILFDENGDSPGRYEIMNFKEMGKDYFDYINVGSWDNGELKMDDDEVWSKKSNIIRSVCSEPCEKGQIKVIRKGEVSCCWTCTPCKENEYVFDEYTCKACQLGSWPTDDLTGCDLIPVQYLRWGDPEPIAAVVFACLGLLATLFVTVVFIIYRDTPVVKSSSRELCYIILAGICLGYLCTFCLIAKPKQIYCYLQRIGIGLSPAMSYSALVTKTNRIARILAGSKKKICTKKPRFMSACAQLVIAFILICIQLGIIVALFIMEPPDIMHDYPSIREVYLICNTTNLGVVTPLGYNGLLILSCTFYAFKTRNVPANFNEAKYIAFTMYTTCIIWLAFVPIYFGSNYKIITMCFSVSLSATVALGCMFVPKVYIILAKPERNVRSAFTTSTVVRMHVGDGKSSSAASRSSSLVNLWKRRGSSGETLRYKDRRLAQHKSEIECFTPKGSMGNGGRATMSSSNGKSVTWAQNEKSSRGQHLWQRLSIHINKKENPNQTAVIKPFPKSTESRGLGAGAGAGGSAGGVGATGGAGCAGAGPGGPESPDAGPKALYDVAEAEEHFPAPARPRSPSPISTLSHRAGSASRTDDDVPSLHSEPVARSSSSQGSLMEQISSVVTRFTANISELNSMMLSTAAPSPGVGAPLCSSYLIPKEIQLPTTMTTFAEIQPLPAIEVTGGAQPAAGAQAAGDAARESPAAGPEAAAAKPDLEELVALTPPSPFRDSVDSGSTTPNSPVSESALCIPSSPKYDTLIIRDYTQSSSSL
For assay [6], the target named is Metabotropic glutamate receptor 2 (Homo sapiens, UniProt Q14416). The assay can be described thus: Displacement of [3H]LY341495 from mGluR2 receptor expressed in BHK cells. In kind it is cell-based.
Metabotropic glutamate receptor 2, sequence (Q14416 whole entry): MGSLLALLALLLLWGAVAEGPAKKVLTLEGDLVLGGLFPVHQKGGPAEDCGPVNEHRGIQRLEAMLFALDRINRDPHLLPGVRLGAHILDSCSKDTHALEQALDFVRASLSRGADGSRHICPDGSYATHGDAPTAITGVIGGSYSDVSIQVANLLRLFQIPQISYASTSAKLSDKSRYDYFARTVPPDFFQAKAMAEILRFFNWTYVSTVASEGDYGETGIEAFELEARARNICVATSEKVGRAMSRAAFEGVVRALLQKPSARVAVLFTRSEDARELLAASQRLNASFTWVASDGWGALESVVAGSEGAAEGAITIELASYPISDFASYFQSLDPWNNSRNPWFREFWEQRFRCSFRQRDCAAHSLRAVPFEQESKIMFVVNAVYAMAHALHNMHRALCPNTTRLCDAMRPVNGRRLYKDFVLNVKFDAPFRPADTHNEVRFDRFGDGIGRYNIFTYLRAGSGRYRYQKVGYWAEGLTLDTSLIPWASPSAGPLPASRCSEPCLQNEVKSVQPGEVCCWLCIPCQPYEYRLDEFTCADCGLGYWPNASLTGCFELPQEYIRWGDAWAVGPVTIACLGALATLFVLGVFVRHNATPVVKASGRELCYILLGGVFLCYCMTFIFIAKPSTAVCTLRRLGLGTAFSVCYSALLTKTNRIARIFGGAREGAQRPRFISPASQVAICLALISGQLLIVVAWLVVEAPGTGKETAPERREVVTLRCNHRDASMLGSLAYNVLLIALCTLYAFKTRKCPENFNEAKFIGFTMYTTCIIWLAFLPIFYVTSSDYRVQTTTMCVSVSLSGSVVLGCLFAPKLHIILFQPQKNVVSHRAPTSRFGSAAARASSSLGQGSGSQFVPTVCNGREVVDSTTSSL

pKi: −log10 of the molar value.

Metabotropic glutamate receptor 4, sequence (Q14833 whole entry): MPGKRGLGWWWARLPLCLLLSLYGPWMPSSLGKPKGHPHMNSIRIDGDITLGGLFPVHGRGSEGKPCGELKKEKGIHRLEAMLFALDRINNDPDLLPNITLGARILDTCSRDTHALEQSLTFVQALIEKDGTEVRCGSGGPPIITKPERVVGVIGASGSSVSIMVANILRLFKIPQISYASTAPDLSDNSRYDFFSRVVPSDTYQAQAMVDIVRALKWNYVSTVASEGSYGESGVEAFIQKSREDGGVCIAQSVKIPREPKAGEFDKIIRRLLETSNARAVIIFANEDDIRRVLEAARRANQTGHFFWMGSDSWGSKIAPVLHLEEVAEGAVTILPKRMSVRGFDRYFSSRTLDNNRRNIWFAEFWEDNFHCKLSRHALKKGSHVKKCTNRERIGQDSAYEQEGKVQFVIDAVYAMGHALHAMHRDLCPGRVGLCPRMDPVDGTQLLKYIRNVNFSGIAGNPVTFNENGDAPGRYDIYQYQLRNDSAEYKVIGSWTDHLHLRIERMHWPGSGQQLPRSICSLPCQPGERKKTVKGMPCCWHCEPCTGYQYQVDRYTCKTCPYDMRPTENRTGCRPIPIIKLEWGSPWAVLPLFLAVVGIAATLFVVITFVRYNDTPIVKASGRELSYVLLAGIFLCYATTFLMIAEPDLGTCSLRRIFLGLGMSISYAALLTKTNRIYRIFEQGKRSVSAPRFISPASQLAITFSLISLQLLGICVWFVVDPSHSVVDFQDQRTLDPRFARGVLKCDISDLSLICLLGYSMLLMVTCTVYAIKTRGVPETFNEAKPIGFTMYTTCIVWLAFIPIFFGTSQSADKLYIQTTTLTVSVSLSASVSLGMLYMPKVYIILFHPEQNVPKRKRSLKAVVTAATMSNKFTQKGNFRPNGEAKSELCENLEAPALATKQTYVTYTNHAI
Metabotropic glutamate receptor 1, sequence (Q13255 whole entry): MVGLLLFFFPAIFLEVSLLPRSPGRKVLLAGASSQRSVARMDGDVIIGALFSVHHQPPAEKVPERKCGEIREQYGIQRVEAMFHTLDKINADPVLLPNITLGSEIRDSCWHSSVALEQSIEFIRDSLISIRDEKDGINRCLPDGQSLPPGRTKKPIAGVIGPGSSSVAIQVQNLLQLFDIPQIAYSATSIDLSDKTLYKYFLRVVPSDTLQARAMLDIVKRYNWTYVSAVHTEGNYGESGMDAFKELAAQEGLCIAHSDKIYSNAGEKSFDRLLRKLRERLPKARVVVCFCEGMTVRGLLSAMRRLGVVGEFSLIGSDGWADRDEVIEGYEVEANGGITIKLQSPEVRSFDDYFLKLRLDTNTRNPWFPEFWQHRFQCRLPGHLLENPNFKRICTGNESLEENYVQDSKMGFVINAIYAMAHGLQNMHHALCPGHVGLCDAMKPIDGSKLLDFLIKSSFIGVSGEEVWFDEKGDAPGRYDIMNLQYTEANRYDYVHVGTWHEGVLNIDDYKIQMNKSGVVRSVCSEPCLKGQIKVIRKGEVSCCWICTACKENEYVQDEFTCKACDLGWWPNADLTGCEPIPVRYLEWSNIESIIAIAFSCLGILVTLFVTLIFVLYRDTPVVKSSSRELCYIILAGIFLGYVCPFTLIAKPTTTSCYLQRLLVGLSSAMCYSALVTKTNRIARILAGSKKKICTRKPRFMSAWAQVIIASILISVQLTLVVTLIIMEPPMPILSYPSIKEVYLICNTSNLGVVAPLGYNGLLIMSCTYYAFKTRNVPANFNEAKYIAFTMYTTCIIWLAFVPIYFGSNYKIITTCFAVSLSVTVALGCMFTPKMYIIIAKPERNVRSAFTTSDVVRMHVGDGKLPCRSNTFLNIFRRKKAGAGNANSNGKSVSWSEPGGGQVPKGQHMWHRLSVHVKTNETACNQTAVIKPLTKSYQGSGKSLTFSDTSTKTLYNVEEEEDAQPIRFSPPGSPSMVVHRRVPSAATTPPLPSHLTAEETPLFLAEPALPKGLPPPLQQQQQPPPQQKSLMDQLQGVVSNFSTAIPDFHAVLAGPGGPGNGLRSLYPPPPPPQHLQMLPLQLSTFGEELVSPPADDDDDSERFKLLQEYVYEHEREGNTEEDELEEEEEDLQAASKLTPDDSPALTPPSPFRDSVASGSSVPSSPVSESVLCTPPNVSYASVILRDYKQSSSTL

Turning to `N[C@H](C(=O)O)[C@@H]1C[C@@H]1C(=O)O`, at Glutamate NMDA receptor, the pKi is 8.05.

Turning to `N[C@@H](C(=O)O)[C@H]1C[C@@H]1S(=O)(=O)O`, the negative-log Ki (pKi) in assay [1] was less than 3.52; on Glutamate NMDA receptor, 4.66; in assay [2] it was less than 3.52; in assay [3] it was 4.47; in assay [4], 4.02; in assay [5], less than 3.52. In addition, the pKi in assay [6] was less than 3.52.

Regarding `N[C@@H](C(=O)O)[C@H]1C[C@H]1S(=O)(=O)O`, the negative-log Ki (pKi) in assay [1] is less than 3.52; on Glutamate NMDA receptor it was 4.21; in assay [2], less than 3.52; in assay [3], 4.19; in assay [4], 4.14; in assay [5] it was 4.26. For the same compound, the pKi in assay [6] is less than 3.52.

On to `N[C@H](C(=O)O)[C@@H]1C[C@@H]1S(=O)(=O)O`, for which the pKi in assay [1] was less than 3.52; on Glutamate NMDA receptor it was 4.72; in assay [2] it was less than 3.52; in assay [3] it was 5.48; in assay [4], 7.00; in assay [5], less than 3.52. This compound also showed a negative logarithm of the Ki (pKi) in assay [6] of less than 3.52.

Regarding `N[C@@H](C(=O)O)[C@@H]1C[C@H]1S(=O)(=O)O`, the pKi in assay [1] was less than 3.52; on Glutamate NMDA receptor, 3.82; in assay [2] it was 3.60; in assay [3], 4.15; in assay [4], 4.14; in assay [5] it was 4.17. In addition, the pKi in assay [6] was less than 3.52.

In the case of `N[C@H](C(=O)O)[C@H]1C[C@H]1S(=O)(=O)O`, the pKi (in assay [1]; on Glutamate NMDA receptor; in assay [2]; in assay [3]; in assay [4]; in assay [5]) was less than 3.52 each time. In assay [6], the pKi is less than 3.52.

Take `N[C@H](C(=O)O)[C@@H]1C[C@H]1S(=O)(=O)O`: the negative logarithm of the Ki (pKi) in assay [1] was less than 3.52; at Glutamate NMDA receptor, less than 3.52; in assay [2], 4.11; in assay [3] it was 4.47; in assay [4], less than 3.52; in assay [5], 4.09. This compound also had a pKi in assay [6] of less than 3.52.

Turning to `N[C@@H](CCS(=O)(=O)O)C(=O)O`, the negative logarithm of the Ki (pKi) is 4.28 in assay [1]; 5.57 on Glutamate NMDA receptor; 4.06 in assay [2]; 5.00 in assay [3]; 5.62 in assay [4]; 4.27 in assay [5]. The same compound had a pKi in assay [6] of less than 3.52.

Take `N[C@H](C(=O)O)[C@H]1C[C@@H]1S(=O)(=O)O`: the pKi is less than 3.52 in assay [1]; less than 3.52 on Glutamate NMDA receptor; 4.47 in assay [2]; less than 3.52 in assay [3]; less than 3.52 in assay [4]; 4.31 in assay [5]. Also, the negative-log Ki (pKi) in assay [6] is 3.63.

`N[C@@H](C(=O)O)[C@@H]1C[C@@H]1S(=O)(=O)O`: the pKi was less than 3.52 in assay [1]; less than 3.52 on Glutamate NMDA receptor; less than 3.52 in assay [2]; 4.46 in assay [3]; less than 3.52 in assay [4]; less than 3.52 in assay [5]. This compound had a pKi in assay [6] of less than 3.52.

The term pKi denotes the negative decadic logarithm of the Ki, by convention in mol/L.

Source of the values: ChEMBL document CHEMBL1148790, “Synthesis, molecular modeling studies, and preliminary pharmacological characterization of all possible 2-(2'-sulfonocyclopropyl)glycine stereoisomers as conformationally constrained L-homocysteic acid analogs” (J Med Chem, 2007).
